Read-outs that look alike come from different tables or passages of the source.
How the values were obtained:
[1] = test system: CCD-19Lu cell line; test: MTT assay, normal lung CCD-19Lu cells; assay type: cell-based; details: CCD 19Lu, normal human lung cells, 24 h, read-out: IC50 against CCD-19Lu
Experimental: (§1) By comparing the compounds’ cytotoxic effects against tumor cell lines and normal cell lines, the drug safety parameter for the anticancer activity of the compounds was evaluated, thereby confirming their cytoprotective qualities. In this study, normal human lung (CCD-19Lu) and normal human pancreas (hTERT-HPNE) cell lines were used as controls. The selectivity index (SI) calculated for the compounds tested scales the IC50 values of the compounds against various tumor cell lines with the IC50 values against normal cell lines (Table 2). […] The differential selectivity indices underscore the importance of targeted therapeutic strategies and the potential for these compounds to provide selective anticancer effects with reduced toxicity to normal cells.
(§2) Many analyses are performed to determine cell proliferation. MTT analysis is one of the viability determination tests. According to the working mechanism of the method, the dye containing the tetrazolium ring reacts with the dehydrogenase enzymes in the cells, only to be reduced and broken down by the metabolic cells, turning into water-insoluble formazan crystals. Color changes associated with mitochondrial activity and resulting from the addition of a solvent as a result of the reaction are measured in the microplate reader as optical density data values.[30] Cells were planted in flat-bottomed, 96-well, sterile, lidded, disposable microplates with 1 × 10^4 cells per well in 200 μL of appropriate medium and were allowed to adhere to the plate bottom by incubating for 24 h. At the end of 24 h, 100 μL of medium was withdrawn, and test substances at different concentrations, prepared in 100 μL, were added. Following the substance application, after a 24 h incubation period, 20 μL of stock MTT solution (MTT solution dissolved in 5 mg/mL PBS and filtered before application) was added to each well and protected from light, and the incubation continued for 3 h. Then, the media of the cells were completely withdrawn, and 100 μL of DMSO was added to dissolve the formazan crystals. After shaking in the dark for 15 min, the optical densities (absorbance) of the color changes at 540–570 and 650 nm reference wavelengths were read in the microplate reader. The data were calculated and created in Microsoft Office Excel. For this purpose, first, the blind well value and the control groups of colored substances were removed from the optical readings. The averages of optical densities and % viability values were made from Excel formula calculations, and the results were discussed. The viability of the control group was assumed to be 100%, and all other viability values were calculated based on this (series were run in n = 5 replicates).

[2] = test system: MCF-7 cell line; test: MTT assay, MCF-7 cells; assay type: cell-based, human; details: Homo sapiens, MCF7, 24 h, read-out: IC50 against MCF-7
Experimental: (§3) The synthesized compounds 4a–4s were screened for their in vitro anticancer activity via the standard MTT assay using three human tumor cell lines, namely, the human lung adenocarcinoma cell line (A549), the human breast cancer cell line (MCF-7), and the human pancreas cell line (PANC-1). Cisplatin was used as a reference drug. […] When the structures of the compounds are evaluated, it is seen that the compounds are derived from two different sources. There are hydroxyl and methoxy substituents on the phenyl ring attached to the benzimidazole. It has also been derivatized using different groups on the phenyl ring close to oxadiazole. When the activities in the PANC-1 cell line are evaluated, it is seen that the activity of compounds bearing the 2,4-dichloro substituent is especially high.
as §2

[3] = test system: VEGFA; test: VEGFA immunofluorescent staining in MCF-7 cells; assay type: cell-based, human; details: 24 h treatment, anti-VEGFA antibody, semiquantitative scoring
Source text: An endogenous angiogenic growth factor called VEGFA primarily promotes the migration and proliferation of vascular endothelial cells.[2] Fluorescent staining degrees of the MCF-7 cancer cell line, marked with an anti-VEGFA antibody and immunofluorescence technique, were compared under light microscopy (Figure 4). […] Five different areas were selected for each group. All cell nuclei seen in the selected areas are compared with those stained VEGFA positive.
For VEGFA immunofluorescent staining, cells were grown on sterile coverslips in 6-well culture dishes. The cells were purified from the medium and washed with phosphate-buffered saline (PBS) (Sigma-Aldrich, Germany). The washed cells were fixed in ph 7.4% paraformaldehyde (Merk, Germany) for 20 min at room temperature. After fixation, the cells were washed two times with PBS for 5 min. For permeability, the cells were incubated in 0.1% Triton X-100 (Sigma-Aldrich, Germany) solution for 10 min. PBS was then washed for 5 min. After washing, Ultra V Block (Thermo Scientific, PBQ180830, USA) was dropped and waited at room temperature for 30 min to prevent nonspecific binding. […] Fluorescent microscopy (Olympus BX51, Japan) was employed by using suitable filters for fluorescence examination and then by making a registration.

[4] = test system: A549 cell line; test: MTT assay, A549 cells; assay type: cell-based, human; details: for IC50: Homo sapiens, A549, MTT, 24 h, read-out: IC50 against A549
Experimental: as §3, §2

[5] = test system: hTERT-HPNE cell line; test: MTT assay, normal pancreas hTERT-HPNE cells; assay type: cell-based; details: normal human pancreas cells, 24 h, read-out: IC50 against hTERT-HPNE
Experimental: as §1, §2

[6] = target: T1, VEGFR2 (Homo sapiens, UniProt P35968); test: VEGFR2 Kinase Assay Kit inhibition; assay type: biochemical; details: read-out: IC50 against VEGFR2
T1 construct: purchased
Experimental: The VEGFR2 Kinase Assay Kit was used for VEGFR2 inhibition. The experiment was performed in vitro according to the kit procedure.[31]

[7] = test system: PANC-1 cell line; test: MTT assay, PANC-1 cells; assay type: cell-based, human; details: for IC50: MTT, 24 h, read-out: IC50 against PANC-1
Experimental: Cisplatin was used as a reference drug. […] There are hydroxyl and methoxy substituents on the phenyl ring attached to the benzimidazole. It has also been derivatized using different groups on the phenyl ring close to oxadiazole.
as §2

T1 sequence (P35968 20-1356): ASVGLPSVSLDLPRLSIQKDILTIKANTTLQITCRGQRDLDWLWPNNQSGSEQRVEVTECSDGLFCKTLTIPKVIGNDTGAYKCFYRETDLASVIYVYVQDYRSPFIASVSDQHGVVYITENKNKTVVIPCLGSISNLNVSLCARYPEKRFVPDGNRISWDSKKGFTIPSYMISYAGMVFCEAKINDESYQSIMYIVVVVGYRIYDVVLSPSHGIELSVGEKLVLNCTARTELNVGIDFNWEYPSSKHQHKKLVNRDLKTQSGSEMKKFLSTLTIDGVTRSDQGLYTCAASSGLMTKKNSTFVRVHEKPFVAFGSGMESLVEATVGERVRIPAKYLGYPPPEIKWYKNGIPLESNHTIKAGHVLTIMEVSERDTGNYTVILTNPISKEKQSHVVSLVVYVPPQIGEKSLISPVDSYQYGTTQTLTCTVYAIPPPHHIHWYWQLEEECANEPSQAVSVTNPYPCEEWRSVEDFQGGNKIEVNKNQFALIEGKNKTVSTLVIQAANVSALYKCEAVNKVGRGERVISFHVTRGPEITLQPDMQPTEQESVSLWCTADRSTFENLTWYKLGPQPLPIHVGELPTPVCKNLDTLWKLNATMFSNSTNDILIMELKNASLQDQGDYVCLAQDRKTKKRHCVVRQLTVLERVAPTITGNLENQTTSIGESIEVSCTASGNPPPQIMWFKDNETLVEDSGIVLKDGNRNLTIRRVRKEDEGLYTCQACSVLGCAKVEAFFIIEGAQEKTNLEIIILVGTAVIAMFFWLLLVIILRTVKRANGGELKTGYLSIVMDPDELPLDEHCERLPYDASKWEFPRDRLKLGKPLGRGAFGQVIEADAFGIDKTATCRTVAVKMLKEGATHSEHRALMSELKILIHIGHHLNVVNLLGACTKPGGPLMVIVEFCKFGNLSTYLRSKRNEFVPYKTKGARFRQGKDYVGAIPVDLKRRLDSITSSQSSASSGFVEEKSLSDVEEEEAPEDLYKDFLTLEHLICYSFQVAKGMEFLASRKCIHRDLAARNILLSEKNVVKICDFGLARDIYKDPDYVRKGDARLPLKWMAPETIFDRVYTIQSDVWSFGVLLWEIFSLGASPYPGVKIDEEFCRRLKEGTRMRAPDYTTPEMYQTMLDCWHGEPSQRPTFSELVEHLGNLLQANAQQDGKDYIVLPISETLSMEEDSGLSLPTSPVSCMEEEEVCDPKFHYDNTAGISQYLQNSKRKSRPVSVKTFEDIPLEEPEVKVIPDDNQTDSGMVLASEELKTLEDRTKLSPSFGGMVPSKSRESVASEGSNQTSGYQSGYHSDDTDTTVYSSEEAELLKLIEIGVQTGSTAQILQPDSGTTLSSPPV

IC50 [2]	IC50 [4]	IC50 [6]	IC50 ([7]; Homo sapiens, PANC-1, 24 h)	IC50 [7]	SMILES	IC50 [1]	VEGFA immunolocalization compared with control [3]	IC50 [5]	Selectivity index (A549) ([4]; SI = cytotoxicity against CCD-19Lu cells/cytotoxicity against A549 cell line)	Selectivity index (PANC-1) ([7]; SI = cytotoxicity against hTERT-HPNE cells/cytotoxicity against PANC-1 cell line)
500 nM	300 nM	–	–	–	COc1ccc(-c2nc3ccc(-c4nnc(SCC(=O)c5ccc(Cl)cc5Cl)o4)cc3[nH]2)cc1 [4r, 2-((5-(2-(4-Methoxyphenyl)-1H-benzimidazol-6-yl)-1,3,4-oxadiazol-2-yl)thio)-1-(2,4-dichlorophenyl)-ethanone]	800 nM	less VEGFA immunolocalization	10900 nM	–	–
1200 nM	1600 nM	502 ± 28 nM	6700 nM	6600 nM	COc1ccc(-c2nc3ccc(-c4nnc(SCC(=O)c5ccc(O)c(O)c5)o4)cc3[nH]2)cc1 [4s, 2-((5-(2-(4-Methoxyphenyl)-1H-benzimidazol-6-yl)-1,3,4-oxadiazol-2-yl)thio)-1-(3,4-dihydroxyphenyl)-ethanone]	1300 nM	less VEGFA immunolocalization	38300 nM	0.81	5.80
